In patent US4877746A, “Methods of carrying out assays for lipoproteins and apolipoproteins” (Pharmacia AB, priority 1985, dated 1989):
Counter-ions that a name gives are not always drawn.

Columns and labels:
[1] = test system: apo(a); experiment: Immunoassay (sandwich, mouse antiapo(a) 125I) of apo(a) in serum after pretreatment at acidic and alkaline pH; format: binding; conditions: for apo(a) concentration read off after alkaline pretreatment: alkaline pH; for apo(a) concentration read off after alkaline pretreatment / apo(a) concentration read off after acidic pretreatment: 1:1 with serum, RT; for apo(a) concentration read off after acidic pretreatment: acidic pH, 20 h
Procedure: (a) Alkaline pH. Equal volumes of serum and 0.13 M NaOH were mixed and incubated at room temperature (=RT) for 2 hours, whereupon phosphate buffer I was added up to an 18-fold dilution of the sample.
(b) Acidic pH. Equal volumes of serum and 0.2 M HCl were mixed and incubated at RT for 20 hours, whereupon phosphate buffer I was added up to an 18-fold dilution of the sample.
(c) Alkaline buffer system. Equal volumes of serum and 0.2 M trisodium phosphate were mixed and incubated at RT for 1 hour, whereupon phosphate buffer I was added up to an 18-fold dilution of the sample.
(§1) 50 μl from the reaction mixture of step 1 was diluted according to the dilution scheme 1/18-1/54-1/162-[…]-1/1458-1/4374. Each dilution was mixed with 50 μl of mouse antiapo(a) ^125 I and incubated for 1 hour at RT, whereupon 50 μl of goat antiapo(a) was added. The reaction mixture was kept standing for 0.5 hours at RT. This was followed by precipitation of the resultant complex with the aid of solid-phase-bound anti-antibodies (2 ml Decanting Suspension, 0.5 hr and RT). The suspension was centrifuged, the supernatant then being removed by decantation and discarded.
In separation experiments goat antiapo(a) was replaced with sheep antiapo(a) and monoclonal antiapo(a). These antibodies were tested in soluble as well as in solid-phase-bound form. Decanting suspension was excluded when solid-phase-bound antiapo(a)s were used.

[2] = test system: Lp(a); experiment: Sandwich immunoassay (method 1.2) of serum after prior art delipidating pretreatment, tracer uptake; format: binding
Procedure: as §1
Equal volumes of serum and pretreating solution were mixed and incubated for 2-16 hours, whereupon the sample was diluted 20-fold with phosphate buffer I. The testing method according to 1.2 was then applied to the reaction solutions. […]
The results are presented as % binding of total amount of tracer added

[3] = dilution 1/20, first concentration: SDS 0.5%, urea 4 M, guanidine HCl 2 M, Triton 2%, Renex 1%, lipase 500 U/l
[4] = dilution 1/20, second concentration: SDS 2.5%, urea 6 M, guanidine HCl 6 M, Triton 10%, Renex 5%, lipase 100 U/l
[5] = dilution 1/60, first concentration: SDS 0.5%, urea 4 M, guanidine HCl 2 M, Triton 2%, Renex 1%, lipase 500 U/l
[6] = dilution 1/60, second concentration: SDS 2.5%, urea 6 M, guanidine HCl 6 M, Triton 10%, Renex 5%, lipase 100 U/l
[7] = dilution 1/180, first concentration: SDS 0.5%, urea 4 M, guanidine HCl 2 M, Triton 2%, Renex 1%, lipase 500 U/l
[8] = dilution 1/180, second concentration: SDS 2.5%, urea 6 M, guanidine HCl 6 M, Triton 10%, Renex 5%, lipase 100 U/l
[9] = dilution 1/540, first concentration: SDS 0.5%, urea 4 M, guanidine HCl 2 M, Triton 2%, Renex 1%, lipase 500 U/l
[10] = dilution 1/540, second concentration: SDS 2.5%, urea 6 M, guanidine HCl 6 M, Triton 10%, Renex 5%, lipase 100 U/l

Compound | apo(a) concentration read off after acidic pretreatment ([1]; 0.2 M pretreating solution) | % binding of total amount of tracer added (uptake) [2, 3] | % binding of total amount of tracer added (uptake) [2, 4] | % binding of total amount of tracer added (uptake) [2, 5] | % binding of total amount of tracer added (uptake) [2, 6] | % binding of total amount of tracer added (uptake) [2, 7] | % binding of total amount of tracer added (uptake) [2, 8] | % binding of total amount of tracer added (uptake) [2, 9] | % binding of total amount of tracer added (uptake) [2, 10] | further results
O=P([O-])([O-])[O-].[Na+].[Na+].[Na+] [Na3 PO4, trisodium phosphate] |  |  |  |  |  |  |  |  |  | apo(a) concentration read off after alkaline pretreatment ([1]; 0.2 M pretreating solution, 1 h): 354 U/l
O=C(O)CC(O)(CC(=O)O)C(=O)O [citric acid] | 25.2 U/l |  |  |  |  |  |  |  |  | 
N=C(N)N [GUANIDINE HCl, Guanidine - HCl] |  | 10.0% | 10.7% | 5.6% | 6.3% | 3.6% | 4.1% | 3.1% | 3.3% | 
O=P(O)(O)O [H3 PO4] | 28.4 U/l |  |  |  |  |  |  |  |  | 
[Na+].[OH-] [NaOH, sodium hydroxide] |  |  |  |  |  |  |  |  |  | uptake on increased treatment time ([1]; 0.13 M NaOH, longer treatment time, given dilution): the uptake was lowered; apo(a) concentration read off after alkaline pretreatment ([1]; 0.13 M pretreating solution, 2 h): 333 U/l; effectiveness of pretreatment ([1]; sodium hydroxide solution versus hydrochloric acid solution): far more effective than a hydrochloric acid solution
CCCCCCCCCCCCOS(=O)(=O)[O-].[Na+] [SDS, sodium dodecyl sulfate] |  | 10.1% | 18.8% | 5.3% | 13.3% | 3.6% | 7.0% | 3.0% | 4.5% | 
Cl [HCl, hydrochloric acid] | 41.0 U/l |  |  |  |  |  |  |  |  | 
NC(N)=O [UREA, Urea] |  | 10.0% | 9.6% | 5.4% | 5.3% | 3.6% | 3.8% | 3.2% | 3.1% | 
